Laboratory results as given in article PMC2940852 (Biochemical pharmacology, 2010).

Columns and labels:
[1] = system: dually-perfused human placental lobule; settings: human placenta; cited from earlier work
[2] = system: dually-perfused human placental lobule; test: Transplacental transfer, dual perfusion of human placental lobule; assay type: in vitro ADME; settings: 4 hours perfusion, closed-closed
BCRP [3] = molecular target: T1, BCRP (Homo sapiens, UniProt Q9UNQ0); settings: human placenta brush border membrane IOVs
T1 sequence (Q9UNQ0 1-655): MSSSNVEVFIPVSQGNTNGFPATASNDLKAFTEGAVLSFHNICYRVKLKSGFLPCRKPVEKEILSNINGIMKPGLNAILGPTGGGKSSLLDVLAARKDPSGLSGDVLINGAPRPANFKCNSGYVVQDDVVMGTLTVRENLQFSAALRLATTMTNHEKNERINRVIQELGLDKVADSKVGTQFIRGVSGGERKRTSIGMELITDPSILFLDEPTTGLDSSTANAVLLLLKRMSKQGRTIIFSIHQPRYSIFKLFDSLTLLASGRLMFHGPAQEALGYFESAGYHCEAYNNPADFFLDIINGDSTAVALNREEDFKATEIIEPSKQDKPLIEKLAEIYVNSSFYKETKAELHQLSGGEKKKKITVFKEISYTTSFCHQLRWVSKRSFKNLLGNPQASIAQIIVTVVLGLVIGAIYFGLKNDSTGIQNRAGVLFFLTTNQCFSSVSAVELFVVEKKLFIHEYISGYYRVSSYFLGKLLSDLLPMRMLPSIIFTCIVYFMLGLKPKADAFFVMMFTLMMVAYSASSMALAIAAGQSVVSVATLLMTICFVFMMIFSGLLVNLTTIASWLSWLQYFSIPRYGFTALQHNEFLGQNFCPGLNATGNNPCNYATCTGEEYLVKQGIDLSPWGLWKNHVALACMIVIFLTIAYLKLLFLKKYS

placental tissue [4] = test: Metabolism by placental tissue during perfusion; assay type: in vitro ADME, human; settings: 4 hours of perfusion; maternal and fetal perfusate and placental tissue
placental tissue [5] = test: Placental viability and functional parameters during perfusion; set-up: species or system human; settings: OH-bupropion 470 ng/ml, 4 hours, compared with control placentas
P-gp [6] = molecular target: T2, P-gp (Homo sapiens, UniProt P08183); settings: human placenta brush border membrane IOVs
BCRP [7] = molecular target: T1, BCRP; test: Stimulation of BCRP ATPase activity; assay type: biochemical; settings: insect cell membranes transfected with human BCRP
P-gp [8] = molecular target: T2, P-gp; test: Stimulation of P-gp ATPase activity; assay type: biochemical; settings: insect cell membranes transfected with human P-gp

T2 sequence (P08183 whole entry): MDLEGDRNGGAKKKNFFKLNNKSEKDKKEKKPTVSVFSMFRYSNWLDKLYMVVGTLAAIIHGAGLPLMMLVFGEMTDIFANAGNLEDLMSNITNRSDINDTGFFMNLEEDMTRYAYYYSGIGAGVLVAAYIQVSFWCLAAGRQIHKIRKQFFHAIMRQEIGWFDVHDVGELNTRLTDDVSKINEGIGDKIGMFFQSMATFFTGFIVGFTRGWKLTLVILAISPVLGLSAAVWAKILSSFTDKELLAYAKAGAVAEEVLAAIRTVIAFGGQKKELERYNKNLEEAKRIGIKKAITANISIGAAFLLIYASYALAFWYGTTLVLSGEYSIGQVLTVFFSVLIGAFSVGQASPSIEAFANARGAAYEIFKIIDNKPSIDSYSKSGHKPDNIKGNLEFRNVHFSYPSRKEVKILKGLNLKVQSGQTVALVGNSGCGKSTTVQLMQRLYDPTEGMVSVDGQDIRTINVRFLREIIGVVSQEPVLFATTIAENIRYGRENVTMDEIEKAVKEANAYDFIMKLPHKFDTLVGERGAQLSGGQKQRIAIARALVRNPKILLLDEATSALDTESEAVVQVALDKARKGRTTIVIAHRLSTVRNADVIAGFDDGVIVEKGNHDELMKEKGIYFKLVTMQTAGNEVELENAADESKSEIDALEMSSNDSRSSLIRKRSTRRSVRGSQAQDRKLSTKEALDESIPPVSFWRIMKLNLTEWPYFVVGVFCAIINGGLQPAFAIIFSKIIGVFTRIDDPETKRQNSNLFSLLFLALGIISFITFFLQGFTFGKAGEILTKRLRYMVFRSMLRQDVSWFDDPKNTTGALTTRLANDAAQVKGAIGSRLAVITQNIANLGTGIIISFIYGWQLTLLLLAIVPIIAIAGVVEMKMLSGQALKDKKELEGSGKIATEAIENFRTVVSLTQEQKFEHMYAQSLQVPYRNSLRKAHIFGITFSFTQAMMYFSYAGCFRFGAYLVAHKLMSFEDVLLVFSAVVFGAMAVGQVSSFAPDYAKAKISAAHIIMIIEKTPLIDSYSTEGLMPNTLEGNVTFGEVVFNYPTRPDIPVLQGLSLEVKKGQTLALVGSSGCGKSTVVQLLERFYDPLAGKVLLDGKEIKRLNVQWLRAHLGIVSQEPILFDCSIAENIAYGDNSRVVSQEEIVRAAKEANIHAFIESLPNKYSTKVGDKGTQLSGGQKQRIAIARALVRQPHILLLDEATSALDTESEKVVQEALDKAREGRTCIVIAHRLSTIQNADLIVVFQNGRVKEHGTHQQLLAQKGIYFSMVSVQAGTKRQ

CN1CCC[C@H]1c1cccnc1 [nicotine]
Placental transfer (freely-diffusible compounds) [1]: 30–40%

C[C@H]1NC(C)(C)CO[C@]1(O)c1cccc(Cl)c1 [OH-bupropion, hydroxybupropion]
Fetal circuit concentration as % of initial concentration in maternal circuit [2]: 32 ± 3%
Concentration in the fetal circuit at the end of the experimental period ([2]; initial maternal concentration 470 ± 17 ng/ml): 151 ± 13 ng/mL
Transported substrate of BCRP (BCRP [3]): not a transported substrate
Biotransformation by placental enzymes during perfusion (placental tissue [4]): without undergoing biotransformation
Placental viability and functional parameters during perfusion (placental tissue [5]): unchanged
Transported substrate of P-gp (P-gp [6]): not a transported substrate

Cc1cc(=O)n(-c2ccccc2)n1C [antipyrine]
Placental transfer (freely-diffusible compounds) [1]: 30–40%

CC(NC(C)(C)C)C(=O)c1cccc(Cl)c1 (stereo not shown) [bupropion]
Vmax of stimulation of ATPase activity by BCRP (BCRP [7]): 6 ± 0.8 nmoles Pi/mg protein*min
Vmax of stimulation of ATPase activity by P-gp (P-gp [8]): 9.5 ± 1.6 nmoles Pi/mg protein*min
